Measured values published in patent US8815900B2, “Compounds and compositions for reducing lipid levels” (CVI Pharmaceuticals Limited, priority 2007, dated 2014).
Several values for one entry are separate records, joined by “and”; a condition that tells them apart may be missing. Equal entries are not always repeated.

Legend:
[1] = Pharmacokinetics of CRDL in male hamsters following intravenous and oral administration; assay type: in vivo; details: for F: PO (20 mg/kg) vs IV (2 mg/kg)
Method: The plasma concentration of CRDL was determined in male hamsters following intravenous or oral administration. Hamsters were given CRDL at 2 mg/kg i.v. or 20 mg/kg p.o. Blood samples were collected at the indicated time points and the plasma was isolated.

[2] = test system: Wister male rats under a high fat and high cholesterol diet; assay: Lipid lowering and body weight effects of (14R,13S)-CRDL hydrochloride salt in Wister rats; assay type: in vivo
Method: Male Wister rats were used as another animal model to examine the in vivo effects of (14R,13S)-CRDL in plasma lipid levels.
In one experiment, 18 Wister male rats under a high fat and high cholesterol diet were divided into 2 groups. One group was given (14R,13S)-CRDL hydrochloride salt orally at a daily dose of 75 mg/kg by an orogastric tube for 4 weeks, and the control group received daily treatment of equal amount of vehicle (0.1 M sodium phosphate, pH 3.5). Serum lipid levels were measured weekly.
At the end of treatment, Rats were sacrificed and blood and sera were collected to measure several critical parameters for liver function and kidney function. […] Kidney function and blood glucose level were not changed by the treatment (FIG. 11E).
The food intake and body weight gains were measured every week during the 4-week treatment period. […] In the first week, the amount of food consumed was decreased in CRDL-treated group. […] The ability of CRDL to activate AMPK signaling pathway to increase energy expenditure and to reduce fat accumulation likely contributes to this weight reducing effect.

[3] = test system: LDLR mRNA expression in HepG2 cells; assay: LDLR mRNA expression in HepG2 cells, semi-quantitative RT-PCR; assay type: cell-based, Human; details: 8 hours, indicated doses, corrected by GAPDH mRNA (FIG. 3)
Method: HepG2 cells obtained from American Tissue Culture Collection (Manassas, Va., USA) were seeded in 6-well culture plates at a density of 0.8×10^6 cells/well cultured in EMEM containing 0.5% FBS and were treated with each purified compound at indicated doses for 8 hours. Total RNA was isolated, and 2 μg per sample was reverse transcribed with random primers using M-MLV (Promega) at 37° C. for 1 hour. PCR was carried out at 94° C. for 30 sec, 60° C. for 30 sec, and 72° C. for 30 sec with initial activation of the enzyme at 94° C. for 1 minute. Thirty cycles were performed for LDLR and GAPDH. PCR was performed using primers HLDLR-up and HLDLR-lo for LDLR and primers HGAPDH-up and HGAPDH-lo for GAPDH. The PCR products were separated on a 1% agarose gel and the band intensity was quantitated. LDLR mRNA levels were corrected by measuring GAPDH mRNA levels.
After the treatment, a portion of cells was harvested for total RNA, and another portion of cells was used for TG measurement. The LDLR mRNA levels were assessed by semi quantitative RT-PCR, and the cellular TG content was determined as described above.

[4] = test system: hypercholesterolemic hamsters; assay: In vivo lipid lowering of (14R,13S)-CRDL in hamsters on high cholesterol diet; set-up: species or system Golden Syrian male hamsters; details: 10 mg/kg daily i.p., 17 days
Method: In another experiment, 18 Golden Syrian male hamsters under a high cholesterol (HC) diet were divided into two treatment groups of i.p. One group was treated with (14R,13S)-CRDL at a daily dose of 10 mg/kg and the control group received equal amount of vehicle.
The HC diet markedly damaged the liver function of the hamsters, which was evident by elevated alanine aminotransaminase (ALT) and aspartate aminotransaminase (AST) in blood. (14R,13S)-CRDL treatment ameliorated the liver function under the HC diet and lowered the serum level of ALT by 60% and lowered the serum level of AST by 30% compared to control (FIG. 10B).

[5] = IV (2 mg/kg), individual hamsters H1-H3, 2 mg/kg
[6] = PO (20 mg/kg), individual hamsters H4-H6, 20 mg/kg
[7] = (14R,13S)-CRDL hydrochloride salt orally 75 mg/kg daily, 4 weeks
[8] = end of 4-week treatment, 75 mg/kg daily orally
[9] = end of 4-week treatment, 75 mg/kg daily orally, vs control group
[10] = HC diet, compared to untreated group

Concentration in plasma ([1]; IV 2 mg/kg, 0.083 hr, mean): 594.29 ng/mL
Concentration in plasma ([1]; IV 2 mg/kg, 0.25 hr, mean): 308.25 ng/mL
Concentration in plasma ([1]; IV 2 mg/kg, 0.5 hr, mean): 140.54 ng/mL
Concentration in plasma ([1]; IV 2 mg/kg, 1 hr, mean): 66.53 ng/mL
Concentration in plasma ([1]; IV 2 mg/kg, 2 hr, mean): 23.76 ng/mL
Concentration in plasma ([1]; IV 2 mg/kg, 6 hr, individual hamsters H1-H3, 2 mg/kg): 6.34 ng/mL and 4.76 ng/mL and 4.67 ng/mL
Concentration in plasma ([1]; IV 2 mg/kg, 6 hr, mean): 5.25 ng/mL
Concentration in plasma ([1]; IV 2 mg/kg, 24 hr, individual hamsters H1-H3): BLQ
Tmax ([1]; IV (2 mg/kg), individual hamsters H1-H3): 0.08 h
AUC(0-∞) [1, 5]: 374 ng·h/mL and 351 ng·h/mL and 345 ng·h/mL
MRT(0-∞) [1, 5]: 0.98 h and 1.17 h and 0.94 h
Vz [1, 5]: 10.44 L/kg and 13.64 L/kg and 9.96 L/kg
t1/2z [1, 5]: 1.35 h and 1.66 h and 1.19 h
AUC(0-t) ([1]; IV (2 mg/kg), mean): 345.74 ng·h/mL
AUC(0-∞) ([1]; IV (2 mg/kg), mean): 357 ng·h/mL
Cmax ([1]; IV (2 mg/kg), mean): 594.29 ng/mL
MRT(0-∞) ([1]; IV (2 mg/kg), mean): 1.03 h
Tmax ([1]; IV (2 mg/kg), mean): 0.08 h
Vz ([1]; IV (2 mg/kg), mean): 11.35 L/kg
t1/2z (half life) ([1]; IV (2 mg/kg), mean): 1.4 h
CLz (clearance) ([1]; IV (2 mg/kg), mean, 2 mg/kg): 93.3 mL/min/kg and 93.7 mL/min/kg
Concentration in plasma ([1]; PO 20 mg/kg, 0.25 hr, mean): 1155.75 ng/mL
Concentration in plasma ([1]; PO 20 mg/kg, 0.75 hr, mean): 250.44 ng/mL
Concentration in plasma ([1]; PO 20 mg/kg, 1 hr, mean): 200.37 ng/mL
Concentration in plasma ([1]; PO 20 mg/kg, 2 hr, mean): 81.01 ng/mL
Concentration in plasma ([1]; PO 20 mg/kg, 6 hr, mean): 15.01 ng/mL
Concentration in plasma ([1]; PO 20 mg/kg, 8 hr, mean): 12.09 ng/mL
Concentration in plasma ([1]; PO 20 mg/kg, 24 hr, individual hamsters H4-H6, 20 mg/kg): 3.41 ng/mL and 2.64 ng/mL and 3.12 ng/mL
Concentration in plasma ([1]; PO 20 mg/kg, 24 hr, mean): 3.04 ng/mL
F ([1]; individual hamsters H4-H6): 34.56% and 22.28% and 33.19%
F ([1]; mean): 30.01%
Tmax ([1]; PO (20 mg/kg), individual hamsters H4-H6): 0.25 h
AUC(0-∞) [1, 6]: 1230 ng·h/mL and 795 ng·h/mL and 1180 ng·h/mL
MRT(0-∞) [1, 6]: 3.41 h and 3.96 h and 3.37 h
t1/2z [1, 6]: 8.94 h and 10.13 h and 6.43 h
AUC(0-t) ([1]; PO (20 mg/kg), mean): 1033.21 ng·h/mL
AUC(0-∞) ([1]; PO (20 mg/kg), mean): 1070 ng·h/mL
Cmax ([1]; PO (20 mg/kg), mean): 1155.75 ng/mL
MRT(0-∞) ([1]; PO (20 mg/kg), mean): 3.58 h
Tmax ([1]; PO (20 mg/kg), mean): ~0.25 h
t1/2z ([1]; PO (20 mg/kg), mean): 8.50 h
blood level of glucose ([4]; HC diet): not changed
blood level of urea nitrogen (BUN) ([4]; HC diet): not changed
reduction of level of creatinine (CREA) ([4]; HC diet, p<0.001): 20%
SMILES: COc1cc2c(cc1OC)[C@H]1[C@@H](C)c3ccc(OC)c(OC)c3CN1CC2 [CRDL, 14R,13S-(+)-corydaline]
Concentration in plasma ([1]; IV 2 mg/kg, 0.083 hr, individual hamsters H1-H3, 2 mg/kg): 621.33 ng/mL and 520.38 ng/mL and 641.16 ng/mL
Concentration in plasma ([1]; IV 2 mg/kg, 0.25 hr, individual hamsters H1-H3, 2 mg/kg): 255.56 ng/mL and 350.21 ng/mL and 318.96 ng/mL
Concentration in plasma ([1]; IV 2 mg/kg, 0.5 hr, individual hamsters H1-H3, 2 mg/kg): 124.95 ng/mL and 165.87 ng/mL and 130.79 ng/mL
Concentration in plasma ([1]; IV 2 mg/kg, 1 hr, individual hamsters H1-H3, 2 mg/kg): 60.71 ng/mL and 69.78 ng/mL and 69.09 ng/mL
Concentration in plasma ([1]; IV 2 mg/kg, 2 hr, individual hamsters H1-H3, 2 mg/kg): 23.92 ng/mL and 19.37 ng/mL and 27.99 ng/mL
AUC(0-t) [1, 5]: 364.46 ng·h/mL and 335.91 ng·h/mL and 336.84 ng·h/mL
CLz [1, 5]: 89.2 mL/min/kg and 95 mL/min/kg and 96.7 mL/min/kg
Cmax [1, 5]: 641.16 ng/mL and 621.33 ng/mL and 520.38 ng/mL
Concentration in plasma ([1]; PO 20 mg/kg, 0.25 hr, individual hamsters H4-H6, 20 mg/kg): 1263.21 ng/mL and 895.64 ng/mL and 1308.39 ng/mL
Concentration in plasma ([1]; PO 20 mg/kg, 0.75 hr, individual hamsters H4-H6, 20 mg/kg): 369.71 ng/mL and 164.19 ng/mL and 217.42 ng/mL
Concentration in plasma ([1]; PO 20 mg/kg, 1 hr, individual hamsters H4-H6, 20 mg/kg): 254.54 ng/mL and 146.76 ng/mL and 199.83 ng/mL
Concentration in plasma ([1]; PO 20 mg/kg, 2 hr, individual hamsters H4-H6, 20 mg/kg): 98.97 ng/mL and 62.78 ng/mL and 81.27 ng/mL
Concentration in plasma ([1]; PO 20 mg/kg, 6 hr, individual hamsters H4-H6, 20 mg/kg): 14.54 ng/mL and 9.66 ng/mL and 20.83 ng/mL
Concentration in plasma ([1]; PO 20 mg/kg, 8 hr, individual hamsters H4-H6, 20 mg/kg): 10.93 ng/mL and 6.80 ng/mL and 18.54 ng/mL
AUC(0-t) [1, 6]: 1188.19 ng·h/mL and 756.88 ng·h/mL and 1154.55 ng·h/mL
Cmax [1, 6]: 1263.21 ng/mL and 895.64 ng/mL and 1308.39 ng/mL
body weight ([2]; 4 weeks, 75 mg/kg daily orally, high fat and high cholesterol diet): maintained constant
LDL-c level, % of control [2, 7]: 25.6%
LDL-c level, % of day 0 [2, 7]: 22.4%
TC, % compared to the control group [2, 7]: 33.8%
TC, % of the pretreatment level [2, 7]: 33.0%
TG level, % of the control [2, 7]: 29%
TG level, % of the pretreatment level (day 0) [2, 7]: 27%
adverse effects during the entire treatment [2, 7]: No any adverse effects were observed
blood glucose level [2, 8]: not changed
kidney function (BUN, CREA) [2, 8]: not changed
serum level of ALT [2, 9]: statistically lower
serum level of AST [2, 9]: statistically lower
LDLR mRNA expression [3]: potent and dose-dependent effects
adverse effects during the drug treatment [4]: no adverse effects were observed
lowering of serum level of ALT ([4]; HC diet, compared to control): 60%
lowering of serum level of AST ([4]; HC diet, compared to control): 30%
reduction of plasma TC [4, 10]: 41.9%
reduction of plasma TG [4, 10]: 46.0%
reduction of plasma non-HDL-c [4, 10]: 50%
